Laboratory results: patent publication US20120029187A1, “HALOALKYLSULFONANILIDE DERIVATIVE” (Nissan Chemical Industries, Ltd., priority 2009, published 2012)

Legend:
Assay type in all cases: in vivo
barnyardgrass [1] = assay: Test Example 1: herbicidal effects in preemergence treatment under submerged conditions; details: dose 2.52 g/a
Method in brief: (§1)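 Weed seeds and 2.5-leaf rice seedlings shared each flooded cup of alluvial soil. Dosing, expressed as g per are, was by pouring water-diluted emulsifiable concentrate onto the surface on sowing day. Mortality was graded 0 to 5 after three weeks' growth.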

bulrush [2] = assay: as above; details: dose 2.52 g/a
Method in brief: as §1

ducksalad [3] = assay: as above; details: dose 2.52 g/a
Method in brief: as §1

transplanted rice = assay: Test Example 1: preemergence treatment under submerged conditions, effect on crop; details: dose 2.52 g/a
Method in brief: as §1

barnyardgrass [4] = assay: Test Example 2: herbicidal effects during the vegetation period under submerged conditions; details: treatment during the vegetation period under submerged conditions; dose 2.52 g/a
Method in brief: (§2)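 Barnyardgrass, bulrush and ducksalad were co-sown in alluvial soil flooded to 4 cm and grown in a greenhouse at 25 to 30° C. At the 1- or 2-leaf stage, water-diluted emulsifiable concentrates went onto the water surface at set doses (g/a). Herbicidal effect was scored three weeks later on a graded scale.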

bulrush [5] = assay: as above; details: treatment during the vegetation period under submerged conditions; dose 2.52 g/a
Method in brief: as §2

ducksalad [6] = assay: as above; details: treatment during the vegetation period under submerged conditions; dose 2.52 g/a
Method in brief: as §2

Italian ryegrass [7] = assay: Test Example 3: herbicidal effects in soil treatment; details: dose 3.2 g/a
Method in brief: (§3)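 Seeds were sown in sterilized diluvial soil and covered with about 1.5 cm of soil. Compounds, formulated as emulsifiable concentrates and diluted with water, were sprayed evenly over the soil surface at set doses in g/a. Herbicidal effect was scored on a rating scale three weeks later.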

barnyardgrass [8] = assay: as above; details: dose 3.2 g/a
Method in brief: as §3

beadstraw [9] = assay: as above; details: dose 3.2 g/a
Method in brief: as §3

common chickweed [10] = assay: as above; details: dose 3.2 g/a
Method in brief: as §3

common lambsquater [11] = assay: as above; details: dose 3.2 g/a
Method in brief: as §3

common ragweed [12] = assay: as above; details: dose 3.2 g/a
Method in brief: as §3

giant foxtail [13] = assay: as above; details: dose 3.2 g/a
Method in brief: as §3

large crabgrass [14] = assay: as above; details: dose 3.2 g/a
Method in brief: as §3

posumbu knotweed [15] = assay: as above; details: dose 3.2 g/a
Method in brief: as §3

redroot pigweed [16] = assay: as above; details: dose 3.2 g/a
Method in brief: as §3

velvetleaf [17] = assay: as above; details: dose 3.2 g/a
Method in brief: as §3

water foxtail [18] = assay: as above; details: dose 3.2 g/a
Method in brief: as §3

wild oat [19] = assay: as above; details: dose 3.2 g/a
Method in brief: as §3

Italian ryegrass [20] = assay: Test Example 4: herbicidal effect in foliage treatment; details: dose 3.2 g/a, three weeks after the application
Method in brief: (§4)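 14-day greenhouse-grown plants (25–30° C) sprayed on foliage with diluted EC; dose as g/a; effect graded after 3 weeks.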

barnyardgrass [21] = assay: as above; details: dose 3.2 g/a, three weeks after the application
Method in brief: as §4

beadstraw [22] = assay: as above; details: dose 3.2 g/a, three weeks after the application
Method in brief: as §4

common chickweed [23] = assay: as above; details: dose 3.2 g/a, three weeks after the application
Method in brief: as §4

common lambsquater [24] = assay: as above; details: dose 3.2 g/a, three weeks after the application
Method in brief: as §4

common ragweed [25] = assay: as above; details: dose 3.2 g/a, three weeks after the application
Method in brief: as §4

giant foxtail [26] = assay: as above; details: dose 3.2 g/a, three weeks after the application
Method in brief: as §4

large crabgrass [27] = assay: as above; details: dose 3.2 g/a, three weeks after the application
Method in brief: as §4

posumbu knotweed [28] = assay: as above; details: dose 3.2 g/a, three weeks after the application
Method in brief: as §4

redroot pigweed [29] = assay: as above; details: dose 3.2 g/a, three weeks after the application
Method in brief: as §4

velvetleaf [30] = assay: as above; details: dose 3.2 g/a, three weeks after the application
Method in brief: as §4

water foxtail [31] = assay: as above; details: dose 3.2 g/a, three weeks after the application
Method in brief: as §4

wild oat [32] = assay: as above; details: dose 3.2 g/a, three weeks after the application
Method in brief: as §4

| SMILES | A: barnyardgrass, herbicidal effect (evaluation scale 0-5) (barnyardgrass [1]) | B: bulrush, herbicidal effect (evaluation scale 0-5) (bulrush [2]) | C: ducksalad, herbicidal effect (evaluation scale 0-5) (ducksalad [3]) | a: transplanted rice, effect on crop (evaluation scale 0-5) (transplanted rice) | A: barnyardgrass, herbicidal effect (evaluation scale 0-5) (barnyardgrass [4]) | B: bulrush, herbicidal effect (evaluation scale 0-5) (bulrush [5]) | C: ducksalad, herbicidal effect (evaluation scale 0-5) (ducksalad [6]) | herbicidal effect, H: Italian ryegrass (Italian ryegrass [7]) | herbicidal effect, A: barnyardgrass (barnyardgrass [8]) | herbicidal effect, O: beadstraw (beadstraw [9]) | herbicidal effect, N: common chickweed (common chickweed [10]) | herbicidal effect, L: common lambsquater (common lambsquater [11]) | herbicidal effect, J: common ragweed (common ragweed [12]) | herbicidal effect, E: giant foxtail (giant foxtail [13]) | herbicidal effect, D: large crabgrass (large crabgrass [14]) | herbicidal effect, M: posumbu knotweed (posumbu knotweed [15]) | herbicidal effect, K: redroot pigweed (redroot pigweed [16]) | herbicidal effect, I: velvetleaf (velvetleaf [17]) | herbicidal effect, G: water foxtail (water foxtail [18]) | herbicidal effect, F: wild oat (wild oat [19]) | other results |
| --- | --- | --- | --- | --- | --- | --- | --- | --- | --- | --- | --- | --- | --- | --- | --- | --- | --- | --- | --- | --- | --- |
| CC(C)COC(=O)N(c1ccccc1CN1OCCCC1=O)S(=O)(=O)C(F)(F)F [III-15] | 5 (mortality of 90% or above (nearly complete death)) | 5 (mortality of 90% or above (nearly complete death)) | 5 (mortality of 90% or above (nearly complete death)) | 2 (mortality of at least 20% and less than 40%) | 5 (mortality of 90% or above (nearly complete death)) | 5 (mortality of 90% or above (nearly complete death)) | 5 (mortality of 90% or above (nearly complete death)) | 3 (mortality of at least 40% and less than 70%) | 5 (mortality of 90% or above (nearly complete death)) | 0 (mortality of less than 5% (almost ineffective)) | 4 (mortality of at least 70% and less than 90%) | 0 (mortality of less than 5% (almost ineffective)) | 3 (mortality of at least 40% and less than 70%) | 5 (mortality of 90% or above (nearly complete death)) | 5 (mortality of 90% or above (nearly complete death)) | 0 (mortality of less than 5% (almost ineffective)) | 2 (mortality of at least 20% and less than 40%) | 4 (mortality of at least 70% and less than 90%) | 5 (mortality of 90% or above (nearly complete death)) | 0 (mortality of less than 5% (almost ineffective)) | H: Italian ryegrass, herbicidal effect (Italian ryegrass [20]): 3 (mortality of at least 40% and less than 70%); A: barnyardgrass, herbicidal effect (barnyardgrass [21]): 5 (mortality of 90% or above (nearly complete death)); O: beadstraw, herbicidal effect (beadstraw [22]): 3 (mortality of at least 40% and less than 70%); N: common chickweed, herbicidal effect (common chickweed [23]): 3 (mortality of at least 40% and less than 70%); L: common lambsquater, herbicidal effect (common lambsquater [24]): 0 (mortality of less than 5% (almost ineffective)); J: common ragweed, herbicidal effect (common ragweed [25]): 4 (mortality of at least 70% and less than 90%); E: giant foxtail, herbicidal effect (giant foxtail [26]): 4 (mortality of at least 70% and less than 90%); D: large crabgrass, herbicidal effect (large crabgrass [27]): 5 (mortality of 90% or above (nearly complete death)); M: posumbu knotweed, herbicidal effect (posumbu knotweed [28]): 0 (mortality of less than 5% (almost ineffective)); K: redroot pigweed, herbicidal effect (redroot pigweed [29]): 2 (mortality of at least 20% and less than 40%); I: velvetleaf, herbicidal effect (velvetleaf [30]): 4 (mortality of at least 70% and less than 90%); G: water foxtail, herbicidal effect (water foxtail [31]): 5 (mortality of 90% or above (nearly complete death)); F: wild oat, herbicidal effect (wild oat [32]): 0 (mortality of less than 5% (almost ineffective)) |
| CN1COCN(Cc2ccccc2NS(=O)(=O)C(F)(F)F)C1=O [IV-1] | 5 (mortality of 90% or above (nearly complete death)) | 5 (mortality of 90% or above (nearly complete death)) | 4 (mortality of at least 70% and less than 90%) | 0 (mortality of less than 5% (almost ineffective)) | 4 (mortality of at least 70% and less than 90%) | 5 (mortality of 90% or above (nearly complete death)) | 4 (mortality of at least 70% and less than 90%) | 0 (mortality of less than 5% (almost ineffective)) | 5 (mortality of 90% or above (nearly complete death)) | 0 (mortality of less than 5% (almost ineffective)) | 0 (mortality of less than 5% (almost ineffective)) | 0 (mortality of less than 5% (almost ineffective)) | 2 (mortality of at least 20% and less than 40%) | 3 (mortality of at least 40% and less than 70%) | 4 (mortality of at least 70% and less than 90%) | 0 (mortality of less than 5% (almost ineffective)) | 0 (mortality of less than 5% (almost ineffective)) | 3 (mortality of at least 40% and less than 70%) | 5 (mortality of 90% or above (nearly complete death)) | 0 (mortality of less than 5% (almost ineffective)) | H: Italian ryegrass, herbicidal effect (Italian ryegrass [20]): 3 (mortality of at least 40% and less than 70%); A: barnyardgrass, herbicidal effect (barnyardgrass [21]): 4 (mortality of at least 70% and less than 90%); O: beadstraw, herbicidal effect (beadstraw [22]): 3 (mortality of at least 40% and less than 70%); N: common chickweed, herbicidal effect (common chickweed [23]): 1 (mortality of at least 5% and less than 20%); L: common lambsquater, herbicidal effect (common lambsquater [24]): 0 (mortality of less than 5% (almost ineffective)); J: common ragweed, herbicidal effect (common ragweed [25]): 1 (mortality of at least 5% and less than 20%); E: giant foxtail, herbicidal effect (giant foxtail [26]): 3 (mortality of at least 40% and less than 70%); D: large crabgrass, herbicidal effect (large crabgrass [27]): 4 (mortality of at least 70% and less than 90%); M: posumbu knotweed, herbicidal effect (posumbu knotweed [28]): 0 (mortality of less than 5% (almost ineffective)); K: redroot pigweed, herbicidal effect (redroot pigweed [29]): 0 (mortality of less than 5% (almost ineffective)); I: velvetleaf, herbicidal effect (velvetleaf [30]): 5 (mortality of 90% or above (nearly complete death)); G: water foxtail, herbicidal effect (water foxtail [31]): 5 (mortality of 90% or above (nearly complete death)); F: wild oat, herbicidal effect (wild oat [32]): 0 (mortality of less than 5% (almost ineffective)) |
